From patent publication US20240083861A1, “HSD17B13 INHIBITORS AND USES THEREOF” (FL2022-001, Inc., priority 2020, published 2024)
pIC50: −log10 of the molar value.

Target: T1, Recombinant human HSD17B13 enzyme (Homo sapiens, UniProt Q7Z5P4)
T1 sequence (Q7Z5P4 20-300): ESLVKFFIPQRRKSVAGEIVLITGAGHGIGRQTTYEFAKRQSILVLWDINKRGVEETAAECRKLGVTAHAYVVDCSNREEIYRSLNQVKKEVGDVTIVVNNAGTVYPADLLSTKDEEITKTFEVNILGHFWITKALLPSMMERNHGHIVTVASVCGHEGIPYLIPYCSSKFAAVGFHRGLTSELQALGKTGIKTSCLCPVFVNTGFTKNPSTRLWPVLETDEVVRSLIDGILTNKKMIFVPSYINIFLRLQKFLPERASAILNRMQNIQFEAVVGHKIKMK
Test: HSD17b13 NAD(P)H-Glo biochemical assay
Conditions: 50 uM estradiol, 1 mM NAD+, NAD(P)H-Glo luminescence; read-out: HSD17β13 IC50
Summary of the method: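 Luminescent NAD(P)H-Glo read-out, taken after 1 hour at RT, measured cofactor reduction. Substrate and cofactor were estradiol at 50 uM and NAD+ at 1 mM final, reacted with the recombinant human enzyme for 3 hours at 37° C in 20 mM Tris pH7.4, 0.002% Tween-20, 0.02% BSA. Compound was pre-incubated with enzyme for 20 minutes at RT.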

Structure (SMILES): Cn1nc(-c2cc(C(F)(F)F)c(F)c(O)c2F)c2cnc(N3CCOCC3C3CC3)cc21 (stereo not drawn) [Compound 9.38, 3-(6-(3-Cyclopropylmorpholino)-1-methyl-1H-pyrazolo[4,3-c]pyridin-3-yl)-2,6-difluoro-5-(trifluoromethyl)phenol]
- pIC50: > 7.00

Structure (SMILES): CN(c1ncc2c(-c3cc(C(F)(F)F)c(F)c(O)c3F)nn(C)c2n1)C1CCOCC1 [Compound 9.39, 2,6-Difluoro-3-(1-methyl-6-(methyl(tetrahydro-2H-pyran-4-yl)amino)-1H-pyrazolo[3,4-d]pyrimidin-3-yl)-5-(trifluoromethyl)phenol]
- pIC50: > 7.00

Structure (SMILES): CN(c1ccc2c(-c3cc(C(F)(F)F)c(F)c(O)c3F)nn(C)c2n1)C1CCOCC1 [Compound 9.40, 2,6-Difluoro-3-(1-methyl-6-(methyl(tetrahydro-2H-pyran-4-yl)amino)-1H-pyrazolo[3,4-b]pyridin-3-yl)-5-(trifluoromethyl)phenol]
- pIC50: > 7.00

Structure (SMILES): Cn1nc(-c2cc(C(F)(F)F)c(F)c(O)c2F)c2ccc(N3CCOCC34CCC4)nc21 [Compound 9.41, 2,6-Difluoro-3-(1-methyl-6-(8-oxa-5-azaspiro[3.5]nonan-5-yl)-1H-pyrazolo[3,4-b]pyridin-3-yl)-5-(trifluoromethyl)phenol]
- pIC50: > 7.00

Structure (SMILES): Cn1nc(-c2cc(C(F)(F)F)c(F)c(O)c2F)c2cnc(N3CC4CCC3CC4)cc21 [Compound 9.42, 3-(6-(2-Azabicyclo[2.2.2]octan-2-yl)-1-methyl-1H-pyrazolo[4,3-c]pyridin-3-yl)-2,6-difluoro-5-(trifluoromethyl)phenol]
- pIC50: > 7.00

Structure (SMILES): Cn1nc(-c2cc(C(F)(F)F)c(F)c(O)c2F)c2cnc(N3CCNC(=O)C34CC4)cc21 [Compound 9.43, 4-(3-(2,4-Difluoro-3-hydroxy-5-(trifluoromethyl)phenyl)-1-methyl-1H-pyrazolo[4,3-c]pyridin-6-yl)-4,7-diazaspiro[2.5]octan-8-one]
- pIC50: > 7.00

Structure (SMILES): CN(c1cc2c(cn1)c(-c1cc(C(F)(F)F)c(F)c(O)c1F)nn2C)C1CCCOC1 (stereo not drawn) [Compound 9.44, 2,6-Difluoro-3-(1-methyl-6-(methyl(tetrahydro-2H-pyran-3-yl)amino)-1H-pyrazolo[4,3-c]pyridin-3-yl)-5-(trifluoromethyl)phenol]
- pIC50: > 7.00

Structure (SMILES): CCC1COCCN1c1cc2c(cn1)c(-c1cc(C(F)(F)F)c(F)c(O)c1F)nn2C (stereo not drawn) [Compound 9.45, 3-(6-(3-Ethylmorpholino)-1-methyl-1H-pyrazolo[4,3-c]pyridin-3-yl)-2,6-difluoro-5-(trifluoromethyl)phenol]
- pIC50: > 7.00

Structure (SMILES): CCN(c1cc2c(cn1)c(-c1cc(C(F)(F)F)c(F)c(O)c1F)nn2C)C1CCC1 [Compound 9.46, 3-(6-(Cyclobutyl(ethyl)amino)-1-methyl-1H-pyrazolo[4,3-c]pyridin-3-yl)-2,6-difluoro-5-(trifluoromethyl)phenol]
- pIC50: > 7.00

Structure (SMILES): COC1CCN(c2cc3c(cn2)c(-c2cc(C(F)(F)F)c(F)c(O)c2F)nn3C)CC1 [Compound 9.47, 2,6-Difluoro-3-(6-(4-methoxypiperidin-1-yl)-1-methyl-1H-pyrazolo[4,3-c]pyridin-3-yl)-5-(trifluoromethyl)phenol]
- pIC50: > 7.00

Structure (SMILES): Cn1nc(-c2cc(C(F)(F)F)c(F)c(O)c2F)c2cnc(N3CCOC4(CC4)C3)cc21 [Compound 9.48, 2,6-Difluoro-3-(1-methyl-6-(4-oxa-7-azaspiro[2.5]octan-7-yl)-1H-pyrazolo[4,3-c]pyridin-3-yl)-5-(trifluoromethyl)phenol]
- pIC50: > 7.00

Structure (SMILES): Cn1nc(-c2cc(C(F)(F)F)c(F)c(O)c2F)c2cnc(N3CCC(O)CC34CC4)cc21 (stereo not drawn) [Compound 9.49, 4-(3-(2,4-Difluoro-3-hydroxy-5-(trifluoromethyl)phenyl)-1-methyl-1H-pyrazolo[4,3-c]pyridin-6-yl)-4-azaspiro [2.5]octan-7-ol]
- pIC50: > 7.00

Structure (SMILES): COCCN(c1cc2c(cn1)c(-c1cc(C(F)(F)F)c(F)c(O)c1F)nn2C)C1CCOCC1 [Compound 9.50, 2,6-Difluoro-3-(6-((2-methoxyethyl)(tetrahydro-2H-pyran-4-yl)amino)-1-methyl-1H-pyrazolo[4,3-c]pyridin-3-yl)-5-(trifluoromethyl)phenol]
- pIC50: > 7.00

Structure (SMILES): Cn1nc(-c2cc(C(F)(F)F)c(F)c(O)c2F)c2cnc(N(CC3CC3)C3CCC3)cc21 [Compound 9.51, 3-(6-(Cyclobutyl(cyclopropylmethyl)amino)-1-methyl-1H-pyrazolo[4,3-c]pyridin-3-yl)-2,6-difluoro-5-(trifluoromethyl)phenol]
- pIC50: > 7.00

Structure (SMILES): CC(C)C1COCCN1c1cc2c(cn1)c(-c1cc(C(F)(F)F)c(F)c(O)c1F)nn2C (stereo not drawn) [Compound 9.52, 2,6-Difluoro-3-(6-(3-isopropylmorpholino)-1-methyl-1H-pyrazolo[4,3-c]pyridin-3-yl)-5-(trifluoromethyl)phenol]
- pIC50: > 7.00

Structure (SMILES): Cn1nc(-c2cc(C(F)(F)F)c(F)c(O)c2F)c2cnc(N3CCNC4(CC4)C3=O)cc21 [Compound 9.53, 7-(3-(2,4-Difluoro-3-hydroxy-5-(trifluoromethyl)phenyl)-1-methyl-1H-pyrazolo[4,3-c]pyridin-6-yl)-4,7-diazaspiro[2.5]octan-8-one]
- pIC50: 6.00 to 7.00

Structure (SMILES): Oc1c(F)c(-c2nn(C3CCOCC3)c3cc(N4CCOCC45CC5)ncc23)cc(C(F)(F)F)c1F [Compound 9.54, 3-(6-(7-Oxa-4-azaspiro[2.5]octan-4-yl)-1-(tetrahydro-2H-pyran-4-yl)-1H-pyrazolo[4,3-c]pyridin-3-yl)-2,6-difluoro-5-(trifluoromethyl)phenol]
- pIC50: > 7.00

Structure (SMILES): Oc1c(F)c(-c2nn(C3COC3)c3cc(N4CCOCC45CC5)ncc23)cc(C(F)(F)F)c1F [Compound 9.55, 2,6-Difluoro-3-(1-(oxetan-3-yl)-6-(7-oxa-4-azaspiro [2.5]octan-4-yl)-1H-pyrazolo[4,3-c]pyridin-3-yl)-5-(trifluoromethyl)phenol]
- pIC50: > 7.00

Structure (SMILES): Oc1c(F)c(-c2nn(C3CCC3)c3cc(N4CCOCC45CC5)ncc23)cc(C(F)(F)F)c1F [Compound 9.56, 3-(1-Cyclobutyl-6-(7-oxa-4-azaspiro[2.5]octan-4-yl)-1H-pyrazolo[4,3-c]pyridin-3-yl)-2,6-difluoro-5-(trifluoromethyl)phenol]
- pIC50: > 7.00

Structure (SMILES): Cn1nc(-c2cc(C(F)(F)F)c(F)c(O)c2F)c2cnc(N3CCOCC3)cc21 [Compound 9.57, 2,6-Difluoro-3-(1-methyl-6-morpholino-1H-pyrazolo[4,3-c]pyridin-3-yl)-5-(trifluoromethyl)phenol]
- pIC50: > 7.00

Structure (SMILES): Cn1nc(-c2cc(C(F)(F)F)c(F)c(O)c2F)c2cnc(N3CCCOCC3)cc21 [Compound 9.58, 2,6-Difluoro-3-(1-methyl-6-(1,4-oxazepan-4-yl)-1H-pyrazolo[4,3-c]pyridin-3-yl)-5-(trifluoromethyl)phenol]
- pIC50: > 7.00

Structure (SMILES): Cn1nc(-c2cc(C(F)(F)F)c(F)c(O)c2F)c2cnc(N3CCCCC34CCC4)cc21 [Compound 9.59, 2,6-Difluoro-3-(1-methyl-6-(5-azaspiro[3.5]nonan-5-yl)-1H-pyrazolo[4,3-c]pyridin-3-yl)-5-(trifluoromethyl)phenol]
- pIC50: > 7.00

Structure (SMILES): COCC1COCCN1c1cc2c(cn1)c(-c1cc(C(F)(F)F)c(F)c(O)c1F)nn2C (stereo not drawn) [Compound 9.60, 2,6-Difluoro-3-(6-(3-(methoxymethyl)morpholino)-1-methyl-1H-pyrazolo[4,3-c]pyridin-3-yl)-5-(trifluoromethyl)phenol]
- pIC50: > 7.00

Structure (SMILES): Cn1nc(-c2cc(C(F)(F)F)c(F)c(O)c2F)c2cnc(N3CCOCC3C3(C)CC3)cc21 (stereo not drawn) [Compound 9.61, 2,6-Difluoro-3-(1-methyl-6-(3-(1-methylcyclopropyl)morpholino)-1H-pyrazolo[4,3-c]pyridin-3-yl)-5-(trifluoromethyl)phenol]
- pIC50: > 7.00

Structure (SMILES): CC(=O)N1CCN(c2cc3c(cn2)c(-c2cc(C(F)(F)F)c(F)c(O)c2F)nn3C)CC1 [Compound 9.62, 1-(4-(3-(2,4-Difluoro-3-hydroxy-5-(trifluoromethyl)phenyl)-1-methyl-1H-pyrazolo[4,3-c]pyridin-6-yl)piperazin-1-yl)ethanone]
- pIC50: 6.00 to 7.00

Structure (SMILES): CC(C)N1CCN(c2cc3c(cn2)c(-c2cc(C(F)(F)F)c(F)c(O)c2F)nn3C)CC1=O [Compound 9.63, 4-(3-(2,4-Difluoro-3-hydroxy-5-(trifluoromethyl)phenyl)-1-methyl-1H-pyrazolo[4,3-c]pyridin-6-yl)-1-isopropylpiperazin-2-one]
- pIC50: > 7.00

Structure (SMILES): CN(CC1CCOCC1)c1cc2c(cn1)c(-c1cc(C(F)(F)F)c(F)c(O)c1F)nn2C [Compound 9.64, 2,6-Difluoro-3-(1-methyl-6-(methyl((tetrahydro-2H-pyran-4-yl)methyl)amino)-1H-pyrazolo[4,3-c]pyridin-3-yl)-5-(trifluoromethyl)phenol]
- pIC50: > 7.00

Structure (SMILES): CN(C)C(=O)C1CN(c2cc3c(cn2)c(-c2cc(C(F)(F)F)c(F)c(O)c2F)nn3C)CCO1 (stereo not drawn) [Compound 9.65, 4-(3-(2,4-Difluoro-3-hydroxy-5-(trifluoromethyl)phenyl)-1-methyl-1H-pyrazolo[4,3-c]pyridin-6-yl)-N,N-dimethylmorpholine-2-carboxamide]
- pIC50: 6.00 to 7.00

Structure (SMILES): CC(=O)N1CCC(N(C)c2cc3c(cn2)c(-c2cc(C(F)(F)F)c(F)c(O)c2F)nn3C)CC1 [Compound 9.66, 1-(4-((3-(2,4-Difluoro-3-hydroxy-5-(trifluoromethyl)phenyl)-1-methyl-1H-pyrazolo[4,3-c]pyridin-6-yl)(methyl)amino)piperidin-1-yl)ethanone]
- pIC50: > 7.00

Structure (SMILES): Cn1nc(-c2cc(C(F)(F)F)c(F)c(O)c2F)c2cnc(N3CCOCC3C3CCC3)cc21 (stereo not drawn) [Compound 9.67, 3-(6-(3-Cyclobutylmorpholino)-1-methyl-1H-pyrazolo[4,3-c]pyridin-3-yl)-2,6-difluoro-5-(trifluoromethyl)phenol]
- pIC50: > 7.00
